Reference: paper PMC5342726, “Identification of small molecule inhibitors of ERCC1-XPF that inhibit DNA repair and potentiate cisplatin efficacy in cancer cells” (Oncotarget, 2016)

Molecular target: T1, ERCC1-XPF (Homo sapiens, UniProt P07992+Q92889)
T1 construct: made in house; host or cells: Sf9 insect cells, baculovirus (obtained from Aziz Sancar)
T1 sequence (Q92889 1-916): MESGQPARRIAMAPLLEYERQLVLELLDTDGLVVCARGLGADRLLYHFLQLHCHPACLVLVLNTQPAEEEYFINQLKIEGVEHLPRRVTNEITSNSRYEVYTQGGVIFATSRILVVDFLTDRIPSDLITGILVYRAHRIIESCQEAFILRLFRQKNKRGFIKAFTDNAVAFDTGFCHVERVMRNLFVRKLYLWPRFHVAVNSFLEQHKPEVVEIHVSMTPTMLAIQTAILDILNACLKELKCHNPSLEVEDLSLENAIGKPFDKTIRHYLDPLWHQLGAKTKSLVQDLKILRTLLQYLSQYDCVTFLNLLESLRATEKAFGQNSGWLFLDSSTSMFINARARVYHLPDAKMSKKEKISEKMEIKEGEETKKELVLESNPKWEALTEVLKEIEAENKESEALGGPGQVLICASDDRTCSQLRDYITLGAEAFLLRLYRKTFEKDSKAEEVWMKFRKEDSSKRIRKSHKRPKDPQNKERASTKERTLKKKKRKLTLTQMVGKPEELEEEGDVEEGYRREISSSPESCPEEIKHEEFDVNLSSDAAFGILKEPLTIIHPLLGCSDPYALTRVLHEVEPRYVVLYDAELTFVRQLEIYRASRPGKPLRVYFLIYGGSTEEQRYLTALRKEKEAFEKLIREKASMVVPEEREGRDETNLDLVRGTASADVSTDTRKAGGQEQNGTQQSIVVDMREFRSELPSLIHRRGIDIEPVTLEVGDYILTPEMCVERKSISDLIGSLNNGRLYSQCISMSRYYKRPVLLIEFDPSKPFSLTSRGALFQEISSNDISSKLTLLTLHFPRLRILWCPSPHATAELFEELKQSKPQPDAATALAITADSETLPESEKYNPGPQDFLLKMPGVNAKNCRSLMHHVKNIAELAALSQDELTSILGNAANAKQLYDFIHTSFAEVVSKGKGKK
T1 sequence (P07992 1-297): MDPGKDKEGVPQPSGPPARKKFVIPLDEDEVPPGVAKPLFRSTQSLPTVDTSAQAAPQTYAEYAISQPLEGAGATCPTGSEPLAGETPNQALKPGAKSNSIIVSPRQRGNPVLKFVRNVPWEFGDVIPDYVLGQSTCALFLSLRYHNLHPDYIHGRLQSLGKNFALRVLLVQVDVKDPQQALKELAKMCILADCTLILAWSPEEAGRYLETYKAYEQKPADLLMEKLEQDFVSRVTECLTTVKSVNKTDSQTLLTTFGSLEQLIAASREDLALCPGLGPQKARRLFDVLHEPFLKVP
Experiment: Rapid dilution experiment for reversible or irreversible binding
Assay type: biochemical
Conditions: for recovery of enzymatic activity after rapid dilution: 100-fold enzyme preincubated 30 min with 10 times IC90, diluted 100-fold; for reversibility of binding to ERCC1-XPF: rapid dilution method
Procedure: Next, to determine reversible or irreversible binding, we used a rapid dilution method. Here, the amount of enzyme (ERCC1-XPF) is increased 100-fold above what is normally used in a reaction and is pre-incubated for 30 minutes with a concentration of the SMI 10-times greater than the IC90 concentration or with vehicle control. After incubation, the enzyme/inhibitor mixture is diluted 100-fold (i.e., to normal reaction conditions) in the reaction buffer with the DNA substrate at normal reaction conditions. A reversible inhibitor dissociates quickly, allowing immediate recovery of enzymatic activity, whereas a slowly reversible inhibitor allows a gradual increase in activity. In contrast, an irreversible inhibitor prevents recovery of any enzymatic activity. […]
Analysis of DNA binding treatment) was used as 100% intrastrand adducts in each […]
Rapid dilution experiments as described previously […]
of the identified compounds – Hit 1 (NSC143099) and Hit comet assay
2 (NSC16168) to ERCC1-XPF. Briefly, in a 10 μl reaction, ERCC1-XPF concentration was increased 100-fold from Repair of interstrand crosslinks (ICLs) normal reaction conditions of 7.5 nM and mixed with 10 was assessed by alkaline comet assay with some times the IC90 concentration of the compound or vehicle modifications. Cells were treated with compound (Hit control (9:1 DMSO-glycerol). After incubation at 37°C 1 or Hit 2) and cisplatin or just cisplatin alone in serum for 30 minutes, 2 μL of the pre-incubate was diluted into a free media. For treatment with compound and cisplatin, 198 μL solution containing the DNA substrate and reaction cells were treated with compound at 15 µM for 2 hours buffer described in the methods section for HTS assay in a 96 and then cisplatin was added (at IC90 concentration for well plate. The 96-well plate was read in a Spectramax M5 the cell line used) to the media and these were incubated repeatedly for 60 minutes. The data was plotted as increase for another 2 hours. […]
Cisplatin intrastrand adduct measurement by of hydrogen peroxide for 15 minutes to induce random ELISA DNA strand breaks. Cells were then trypsinized, pelleted and resuspended in 1% low melting point agarose. Cell […]
ELISA as described with some modifications. […] Equal amounts of DNA were coated on 96 kept in neutralizing solution (0.4 M Tris–HCl, pH 7.5) well DNA binding ELISA plates in binding buffer (1M for 10 minutes. Slides were then stained with SYBR sodium chloride, 50 mM sodium phosphate buffer, pH green (Trevigen) and comets were analyzed using a 7.4, 0.02% sodium azide) and incubated at 4°C overnight. […]
The wells were blocked with 1% BSA in PBS for 1 hour Fifty cells were analyzed per slide using Komet Assay at room temperature. […]

Cc1ccc(S(=O)(=O)Oc2cc(S(=O)(=O)O)cc3cc(S(=O)(=O)O)cc(N)c23)cc1 [NSC16168]
recovery of enzymatic activity after rapid dilution: recovers slowly | reversibility of binding to ERCC1-XPF: moderately reversible inhibitor

Oc1cc(O)c2c(c1)OC(c1ccc(O)c(O)c1)C(O)C2c1c(O)cc(O)c2c1OC(c1ccc(O)c(O)c1)C(O)C2 (stereo not shown) [NSC143099]
recovery of enzymatic activity after rapid dilution: virtually no recovery of the enzymatic activity | reversibility of binding to ERCC1-XPF: binds irreversibly
